How the values were obtained:
PDE4 = assay: Inhibition of PDE4 activity (method of Bauer and Schwabe, adapted to microtiter plates); format: biochemical; conditions: inhibitory concentration as −log IC50 (mol/l)
Experimental: The activity test was carried out according to the method of Bauer and Schwabe, which was adapted to microtiter plates (Naunyn-Schmiedeberg's Arch. Pharmacol. 1980, 311, 193-198). The PDE reaction takes place in the first step here. In a second step, the resulting 5′-nucleotide is cleaved by a 5′-nucleotidase of the snake venom of Crotalus atrox to the uncharged nucleoside. In the third step, the nucleoside is separated from the remaining charged substrate on ion-exchange columns. The columns are eluted directly into minivials, into which 2 ml of scintillator fluid are additionally added, for counting using 2 ml of 30 mM ammonium formate (pH 6.0).
The inhibitory values determined for the compounds according to the invention [inhibitory concentration as −log Ic50 (mol/l)] follow from the following Table A, in which the numbers of the compounds correspond to the numbers of the examples.

Structure (SMILES)	melting point [°C]	−log IC50, inhibition of the PDE4 activity (PDE4)
CCOc1cc2c(cc1OC)C(c1ccc(CCl)cc1)=N[C@H]1CCCC[C@@H]21 (relative stereo) [Compound 19, cis-6-(4-Chloromethylphenyl)-9-ethoxy-8-methoxy-1,2,3,4,4a,10b-hexahydrophenanthridine]	151 to 153	8.59
COc1cc2c(cc1OC)C1CCCCC1N=C2c1cccc(C(=O)N2CCCCC2)c1 (single isomer, unassigned; (-)) [Compound 17, (−)-cis-8,9-Dimethoxy-[3-(piperidin-1-ylcarbonyl)phenyl]-1,2,3,4,4a,10b-hexahydrophenanthridine]	182 to 185	8.13
CCOc1cc2c(cc1OC)C(c1ccc(OCC)c(OCC3CC3)c1)=NC1CCCCC21 (single isomer, unassigned; (-)) [Compound 39, (−)-cis-9-Ethoxy-8-methoxy-6-[(3-cyclopropylmethoxy-4-ethoxy)phenyl]-1,2,3,4,4a,10b-hexahydrophenanthridine]	102 to 105	8.87
COc1cc2c(cc1OC)C1CCCCC1N=C2c1ccc(OC)c(N2C(=O)CCC2=O)c1 (single isomer, unassigned; (-)) [Compound 48, (−)-cis-8,9-Dimethoxy-6-{[3-(2,5-dioxopyrrolidin-1-yl)-4-methoxy]phenyl}-1,2,3,4,4a,10b-hexahydrophenanthridine]	168 to 177	7.67
COc1cc2c(cc1OC)[C@@H]1CCCC[C@@H]1N=C2c1ccc(Oc2ccccc2)cc1 [Compound 4, (−)-cis-8,9-Dimethoxy-6-(4-phenoxyphenyl)-1,2,3,4,4a,10b-hexahydrophenanthridine]	110 to 115	7.52
COc1cc2c(cc1OC)[C@@H]1CCCC[C@@H]1N=C2c1cccc(OCc2ccccc2)c1 [Compound 7, (−)-cis-8,9-Dimethoxy-6-(3-benzyloxyphenyl)-1,2,3,4,4a,10b-hexahydrophenanthridine]	118 to 120	8.40
COC(=O)Cc1ccc(C2=N[C@H]3CCCC[C@H]3c3cc(OC)c(OC)cc32)cc1 [Compound 18, (−)-cis-8,9-Dimethoxy-6-(4-methoxycarbonylmethylphenyl)-1,2,3,4,4a,10b-hexahydrophenanthridine]	124 to 125	7.49
COc1cc2c(cc1OC)[C@@H]1CCCC[C@@H]1N=C2c1ccc(C(=O)CC(C)C)cc1 [Compound 23, (−)-cis-8,9-Dimethoxy-6-[4-(3-methylbutyryl)phenyl]-1,2,3,4,4a,10b-hexahydrophenanthridine]	114 to 117	7.5
COc1cc2c(cc1OC)[C@@H]1CCCC[C@@H]1N=C2c1ccc(C(=O)CC2CC2)cc1 [Compound 24, (−)-cis-8,9-Dimethoxy-6-[4-cyclopropylmethylcarbonylphenyl]-1,2,3,4,4a,10b-hexahydrophenanthridine]	93 to 98	7.48
COc1cccc(C(=O)c2ccc(C3=N[C@H]4CCCC[C@H]4c4cc(OC)c(OC)cc43)cc2)c1 [Compound 30, (−)-cis-8,9-Dimethoxy-6-[4-(3-methoxybenzoyl)phenyl]-1,2,3,4,4a,10b-hexahydrophenanthridine]	146 to 148	7.94
COc1cc2c(cc1OC)[C@@H]1CCCC[C@@H]1N=C2c1cccc(OCC2CC2)c1 [Compound 35, (−)-cis-8,9-Dimethoxy-6-(3-cyclopropylmethoxyphenyl)-1,2,3,4,4a,10b-hexahydrophenanthridine]	54 to 61	7.43
COc1cc2c(cc1OC)[C@@H]1CCCC[C@@H]1N=C2c1cc(OCC2CC2)cc(OCC2CC2)c1 [Compound 41, (−)-cis8,9-Dimethoxy-6-[3,5-bis(cyclopropylmethoxy)phenyl]-1,2,3,4,4a,10b-hexahydrophenanthridine]		8.03
COc1cc2c(cc1OC)[C@@H]1CCCC[C@@H]1N=C2c1ccc(OC(F)F)c(OCC2CC2)c1 [Compound 42, (−)-cis-8,9-Dimethoxy-6-(3-cyclopropylmethoxy-4-difluoromethoxyphenyl)-1,2,3,4,4a,10b-hexahydrophenanthridine]		7.43
COc1cc2c(cc1OC)[C@@H]1CCCC[C@@H]1N=C2c1ccc(OC)c(N2CCCC2=O)c1 [Compound 47, (−)-cis-8,9-Dimethoxy-6-[4-methoxy-3-(2-oxopyrrolidin-1-yl)phenyl]-1,2,3,4,4a,10b-hexahydrophenanthridine]	147 to 152	7.33
COc1cc2c(cc1OC)[C@@H]1CCCC[C@@H]1N=C2c1cccc(C(C)=O)c1 [Compound 49, (−)cis-8,9-Dimethoxy-6-(3-acetylphenyl)-1,2,3,4,4a,10b-hexahydrophenanthridine]	112.5 to 114	7.17
CCC(=O)c1ccc(C2=N[C@H]3CCCC[C@H]3c3cc(OC)c(OC)cc32)cc1 [Compound 50, (−)-cis-8,9-Dimethoxy-6-[4-propionylphenyl]-1,2,3,4,4a,10b-hexahydrophenanthridine]		7.98

— patent US6476025B1, “Phenylphennanthridines with PDE-IV inhibiting activity” (Altana Pharma AG, priority 1999, dated 2002)
